Data on 3 compounds can be found in publication PMC6978316, “Development of chimeric peptides to facilitate the neutralisation of lipopolysaccharides during bactericidal targeting of multidrug-resistant Escherichia coli” (Communications Biology, 2020).

The subject of series [1] is pepsin. Type of series: in vitro ADME.
The test system of series [2] is trypsin. Type of series: in vitro ADME.
For series [3], the system named is S. aureus, Enterococcus faecalis, and Streptococcus suis. The format is cell-based. The method, then:
(§1) The MIC values of A6, G6, the parental peptides (N6 and LBP14), LBPN6, scramble controls (N6CK, A6CK, and G6CK), and PMB were determined by the microtiter broth dilution method. The tested strains included Gram-negative bacteria, Gram-positive bacteria, and fungi and were cultured to the logarithmic growth phase, diluted to 10^5 CFU per ml, and added into 96-well plates (90 μl per well). Peptides or antibiotic were diluted with PBS by 2-fold dilution and were added to each well (10 μl per well). Polymyxin B (PMB) and PBS were used as the positive and negative control, respectively. […] All experiments were repeated three times.

Series [4] in a line: Biodistribution of FITC-labeled peptides (in vivo fluorescence imaging). The conditions noted are these: nude mice, FITC-labeled peptide 5 mg per kg intraperitoneally. The method, then:
The nude mice were intraperitoneally injected with 5 mg per kg FITC-labeled A6, G6, and N6, respectively. Free FITC was used as a negative control.

The nature of series [5]: in vitro. The conditions noted are these: for half-life / remaining at 2 h / remaining at 1 h / remaining at 4 h: mouse, serum; for remaining at 2 h / remaining at 1 h / remaining at 4 h / peptide remained intact in serum: mice serum, 37 °C, RP-HPLC. The method, then: The thermal, pH and enzyme stability of A6 and G6 were evaluated against MDR E. coli CVCC195 using a previous method with minor revisions. The N6, A6, and G6 solutions were treated at different temperatures (20–100 °C) for 1 h, dissolved and incubated at different pH values (2–10) for 3 h, or incubated with trypsin or pepsin for 4 h. The inhibition zone diameters were measured after incubation at 37 °C for 18–24 h. The peptides were dissolved in H2O or mice serum at 37 °C to detect their serum stability and samples were removed at different time points to determine their residual activity by the inhibition zone or reverse-phase high-performance liquid chromatography (RP-HPLC) methods[62],[63].

Series [6] has as its system S. pullorum CVCC533. In words: MIC, microtiter broth dilution. The format is cell-based, Salmonella pullorum. The note with it: 37 °C, 16–18 h, three independent experiments. The method, then: as §1
In series [7] the test system is E. coli CVCC1515. Put plainly: MIC, microtiter broth dilution. Type of series: cell-based, Escherichia coli. The conditions noted are these: 37 °C, 16–18 h, three independent experiments. How it is done:
as §1

The test system of series [8] is Streptococcus suis CVCC606. Put plainly: MIC, microtiter broth dilution. The format is cell-based. The conditions noted are these: 37 °C, 16–18 h, three independent experiments. How it is done: as §1
(Dilution methods test growth across graded concentrations, often in twofold steps.)

In series [9] the test system is Staphylococcus aureus ATCC43300. In words: MIC, microtiter broth dilution. Type of series: cell-based. The note with it: 37 °C, 16–18 h, three independent experiments. The method, then:
as §1

Series [10] concerns Pseudomonas aeruginosa CICC10419. In words: MIC, microtiter broth dilution. The note with it: 37 °C, 16–18 h, three independent experiments. Type of series: cell-based. How it is done:
as §1

For series [11], the system named is Enterococcus faecalis CVCC3936. Put plainly: MIC, microtiter broth dilution. Type of series: cell-based. The conditions noted are these: 37 °C, 16–18 h, three independent experiments. How it is done:
as §1

The subject of series [12] is MDR E. coli CVCC195. Put plainly: Sepsis mouse model, survival after lethal E. coli challenge. Type of series: in vivo, ICR mice. The conditions noted are these: mice, E. coli 5 × 10^8 CFU i.p.; 0.25 μmol per kg; 7 d; n = 5. How it is done: The mouse survival was recorded for 7 d. The mice injected with LPS or saline were used as negative or blank controls, respectively.

[13] abbreviates: peptide remaining in serum, Mean, 1 h, mean of n = 3 (source data Fig. 2f).
Where [14] appears, read: peptide remaining in serum, Mean, 2 h, mean of n = 3 (source data Fig. 2f).
[15] abbreviates: peptide remaining in serum, Mean, mean of n = 3 (source data Fig. 2f).

Where a SMILES comes first, the peptide text is derived from it. Bridges are numbered along the chain shown (N, C = ends).

As usually defined, the half-life is the time in which the quantity being followed falls by half. Higher therefore signals slow loss. As usually defined, the amount remaining is what is left of the initial amount, in per cent. Low readings indicate a greater loss, high ones greater stability. Turning to “H-RVQGRWKVRASFFKEAAAKEAAAKGFAWNVCVYRNGVRVCHRRAN-OH (disulfide 31-40) [A6]”, in [1], the “antibacterial activity after pepsin (inhibition zone diameter), Mean” value worked out at 1.623. The “antibacterial activity without enzyme (inhibition zone diameter), Mean” value in series [1] is reported as 1.456. The “antibacterial activity after trypsin (inhibition zone diameter), Mean” value in series [2] was determined as 0. Also, in series [3], the “MICs against S. aureus, Enterococcus faecalis, and Streptococcus suis” value is recorded as “greater than 3.52 μM”. The “time after injection at which the fluorescence disappeared / peptide was excreted” value in series [4] stood at 48 h. The half-life in series [5] was under 2 h. Further, the fraction remaining at 2 h in [5] (peptide remained intact in serum, 2 h) was found to be 7%; in series [5] (setting [14]), 7.18%. In addition, the fraction remaining at 1 h in series [5] (setting [13]) worked out at 27%. For the same compound, the fraction remaining at 4 h in series [5] (setting [15]) came out at 4.77%.

For the compound `CC(C)[C@@H]1NC(=O)CNC(=O)[C@H](CC(N)=O)NC(=O)[C@H](CCCNC(=N)N)NC(=O)[C@H](Cc2ccc(O)cc2)NC(=O)[C@H](C(C)C)NC(=O)[C@@H](NC(=O)[C@@H](NC(=O)[C@H](CC(N)=O)NC(=O)[C@H](Cc2c[nH]c3ccccc23)NC(=O)[C@H](C)NC(=O)[C@H](Cc2ccccc2)NC(=O)CNC(=O)[C@H](CO)NC(=O)CNC(=O)CNC(=O)CNC(=O)CNC(=O)[C@H](CCCCN)NC(=O)[C@H](Cc2ccccc2)NC(=O)[C@H](Cc2ccccc2)NC(=O)[C@H](CO)NC(=O)[C@H](C)NC(=O)[C@H](CCCNC(=N)N)NC(=O)[C@@H](NC(=O)[C@H](CCCCN)NC(=O)[C@H](Cc2c[nH]c3ccccc23)NC(=O)[C@H](CCCNC(=N)N)NC(=O)CNC(=O)[C@H](CCC(N)=O)NC(=O)[C@@H](NC(=O)[C@@H](N)CCCNC(=N)N)C(C)C)C(C)C)C(C)C)CSSC[C@@H](C(=O)N[C@@H](Cc2c[nH]cn2)C(=O)N[C@@H](CCCNC(=N)N)C(=O)N[C@@H](CCCNC(=N)N)C(=O)N[C@@H](C)C(=O)N[C@@H](CC(N)=O)C(=O)O)NC(=O)[C@H](C(C)C)NC(=O)[C@H](CCCNC(=N)N)NC1=O` [G6] (H-RVQGRWKVRASFFKGGGGSGFAWNVCVYRNGVRVCHRRAN-OH; disulfide 26-35), the “antibacterial activity after pepsin (inhibition zone diameter), Mean” value in series [1] worked out at 1.607. The “antibacterial activity without enzyme (inhibition zone diameter), Mean” value in series [1] was found to be 1.439. In [2], the “antibacterial activity after trypsin (inhibition zone diameter), Mean” value stood at 0. Moreover, the “MICs against S. aureus, Enterococcus faecalis, and Streptococcus suis” value in [3] is given as “greater than 3.52 μM”. In addition, the MIC in series [6], in series [7], in series [8], in series [9], in [10] and in series [11] was 16 μg per ml throughout. Besides, the “time after injection at which the fluorescence disappeared / peptide was excreted” value in series [4] was 48 h. Moreover, the entries for the “peptide remained intact in serum” value in series [5] (1 h) and in [5] (2 h) were 68.5% and 29.5%, respectively. The compound also came in with a half-life in [5] of under 2 h. The fraction remaining at 1 h in series [5] (setting [13]) worked out at 68.6%. The compound also gave an amount remaining at 2 h in series [5] (setting [14]) of 29.6%. This compound gave a share remaining at 4 h in [5] (setting [15]) of 11.2%.

Compound polymyxin B [PMB] came in with a survival rate in series [12] of 100%.
